Patent US20100216854A1, “1,3 AND 1,3,5 SUBSTITUTED IMIDAZOLES AS […]” (Eldrug S.A., priority 2007, published 2010)
“And” between values parts separate entries of the source, which are not always exact repeats. Equal entries are not always repeated. Marks after values point to notes of the source that are not given here. One block for each compound: values may come before it.

Key:
[1] = system: α2-AR; assay: Testing α2-agonist properties: BP response to norepinephrine bolus before and after compound in mice; assay type: in vivo, Swiss Webster mice; details: for suppression of the hypertensive effect of NE: NE bolus 30 minutes after injection of compound, higher dose (300) for E-P, 100 for H-P, H-Px and UK 14304; for BP after compound (100 μg/kg): iv 100 μg/kg; for BP after compound (300 μg/kg): iv 300 μg/kg
Procedure: Swiss Webster mice were anesthetized with 50 mg/kg pentobarbital and two lines were inserted, one in right iliac artery and the other in right iliac vein. Next morning the arterial line was connected to a blood pressure transducer and the mean BP was recorded with a Power lab/800 data acquisition system. The venous line was used for drug infusion.

[2] = target: T1, Angiotensin II (AII) receptor (Oryctolagus cuniculus, UniProt P34976); assay: Hypotensive effect as ARBs in anesthetized rabbits made hypertensive by AII infusion; assay type: in vivo, New Zealand White rabbits; details: AII infusion 1 μg/min; for Mean BP after 1st bolus (300 ng/kg) / Mean BP after 1st bolus (150 ng/kg): IV bolus; for Mean BP after 1st bolus (300 ng/kg) / Mean BP after 2nd bolus (600 ng/kg) / Mean BP after 1st bolus (150 ng/kg) / Mean BP after 2nd bolus (300 ng/kg): mean ± S.D.; for Mean BP after 2nd bolus (600 ng/kg): second IV bolus 15 min after 300 ng/kg; for Mean BP after 2nd bolus (300 ng/kg): second IV bolus 15 min after 150 ng/kg
T1 construct: evaluated in the anesthetized rabbit preparation made hypertensive by intravenous infusion of AII; from tissue; host or cells: whole living New Zealand White rabbit (in vivo blood pressure)
T1 sequence (P34976 1-359): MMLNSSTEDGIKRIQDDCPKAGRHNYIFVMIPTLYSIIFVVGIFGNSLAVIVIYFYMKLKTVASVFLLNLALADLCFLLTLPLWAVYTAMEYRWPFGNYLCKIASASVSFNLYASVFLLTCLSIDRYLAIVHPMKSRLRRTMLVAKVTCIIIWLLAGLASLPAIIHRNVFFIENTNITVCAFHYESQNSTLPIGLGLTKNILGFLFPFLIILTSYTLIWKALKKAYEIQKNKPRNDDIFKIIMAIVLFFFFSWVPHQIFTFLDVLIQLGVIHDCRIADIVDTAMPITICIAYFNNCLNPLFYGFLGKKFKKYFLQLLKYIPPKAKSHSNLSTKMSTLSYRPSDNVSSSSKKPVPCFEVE
Procedure: The hypotensive effect of these compounds as ARBs was evaluated in the anesthetized rabbit preparation made hypertensive by intravenous infusion of AII. In brief, adult normotensive male New Zealand White rabbits weighing between 2.5 and 3.5 kg were anesthetized by pentobarbitone (30 mg/kg), intubated and mechanically ventilated with 100% oxygen using a respirator for small animals (MD Industries, Mobile, Ala., USA). The tidal volume was 15 ml and the rate was adjusted to keep blood gases within normal range. Two polyethylene catheters were inserted, one in the carotid artery for continuous blood pressure monitoring via a transducer attached to a multichannel recorder (Nihon-Kohden, Model 6000, Japan) and the other one in the jugular vein for the administrations of solution made by diluting angiotensin II (ANGII) (Hypertension, CIBA) in 5% dextrose at final concentration of 5 μg/ml. Based on previous testing with this rabbit preparation submaximal angiotensin II-dependent hypertension was induced by infusing angiotensin via a syringe pump (Harvard Apparatus Pump 22, Harvard Apparatus, Natick, Mass., USA) at a constant rate of 0.2 ml/min (1 μg/min). Five minutes after the establishment of hypertension, two cumulative IV boluses of each compound were given via an ear vein 15 minutes apart. After the second bolus mean blood pressure was recorded for 30 minutes and the experiment was terminated. […]
Compounds E-P, H—P, H-Px, were also tested for the AngII receptor blocker properties, by testing their ability to block the hypertensive effect of AngII, using adult normotensive male New Zealand white rabbits. […] Values represent the mean blood pressure and are given as mean±S.D.

[3] = Effect on mean BP in anesthetized normotensive rabbits (agonistic effect); assay type: in vivo; details: cumulative IV injections of 300-900 ng/kg
[4] = system: rat uterus; details: rat uterus assay; cited from earlier work
[5] = anesthetized rabbits; cited from earlier work
[6] = group mean, after 100 μg/kg compound, second NE bolus 30 min after compound
[7] = group mean, BP recorded after injection
[8] = individual mice, 100 μg/kg compound
[9] = individual mice, after 100 μg/kg compound

Compound: Brc1c(NC2=NCCN2)ccc2nccnc12 [UK 14304, reference compound]
suppression of the hypertensive effect of NE [1]: 48%
Δ2 = BP changes between second bolus of Norepinephrine and the new baseline BP after injection of compound ([1]; group mean, 100 μg/kg compound): 15.8 mmHg
BP after second bolus NE (0.12 μg/kg) [1, 6]: 125.5 mmHg
BP after compound (100 μg/kg) [1, 7]: 109.8 mmHg
Δ2 = BP changes between second bolus of Norepinephrine and the new baseline BP after injection of compound ([1]; individual mice, 100 μg/kg compound, listed as UK): 20.0 mmHg and 12.0 mmHg and 7.0 mmHg and 24.0 mmHg
BP after second bolus NE (0.12 μg/kg) ([1]; individual mice, after 100 μg/kg compound, listed as UK): 125.0 mmHg and 123.0 mmHg and 115.0 mmHg and 139.0 mmHg
BP after compound (100 μg/kg) ([1]; individual mice, listed as UK): 105.0 mmHg and 111.0 mmHg and 108.0 mmHg and 115.0 mmHg
decrease in BP ([1]; mice, 100 Ilg/kg, control α2-agonist): 15 mmHg

Compound: [Sar^1, Lys^3, Glu^5]ANG II
agonist activity [4]: possesses agonist activity
agonist activity [5]: possesses agonist activity

Compound: CCCCC1=NC2(CCCC2)C(=O)N1Cc1ccc(-c2ccccc2-c2nnn[nH]2)cc1 [Irbesartan]
Mean BP after 1st bolus (150 ng/kg) [2]: 141 ± 10 mmHg
Mean BP after 2nd bolus (300 ng/kg) [2]: 133 ± 11 mmHg
Cumulative % drop in mean BP after the 2nd bolus ([2]; boluses 150 then 300 ng/kg): −24 ± 7%

Continued, in another order:

Mean BP after 1st bolus (300 ng/kg) [2]: 148 ± 23 mmHg
Mean BP after 2nd bolus (600 ng/kg) [2]: 131 ± 15 mmHg
Cumulative % drop in mean BP after the 2nd bolus ([2]; boluses 300 then 600 ng/kg): −24 ± 4%
Compound: NCCc1cncn1Cc1ccccc1-c1nnn[nH]1 [H-Px]
suppression of the hypertensive effect of NE [1]: 42%
Δ2 = BP changes between second bolus of Norepinephrine and the new baseline BP after injection of compound ([1]; group mean, 100 μg/kg compound): 12.0 mmHg
BP after second bolus NE (0.12 μg/kg) [1, 6]: 128.3 mmHg
BP after compound (100 μg/kg) [1, 7]: 125.3 mmHg
Δ2 = BP changes between second bolus of Norepinephrine and the new baseline BP after injection of compound [1, 8]: 15* mmHg and 11.0 mmHg and 13.0 mmHg
BP after second bolus NE (0.12 μg/kg) [1, 9]: 114.0 mmHg and 136.0 mmHg and 135.0 mmHg
BP after compound (100 μg/kg) ([1]; individual mice): 129.0 mmHg and 125.0 mmHg and 122.0 mmHg
dose required to suppress NE effect ([1]; mice): 0.1 mg/kg
effect on mean BP [3]: did not significantly affect mean BP

Cumulative % drop in mean BP after the 2nd bolus ([2]; boluses 150 then 300 ng/kg): −41 ± 3%
Compound: CCOc1nc2cccc(C(=O)O)c2n1Cc1ccc(-c2ccccc2-c2nnn[nH]2)cc1 [Candesartan]

Mean BP after 1st bolus (300 ng/kg) [2]: 149 ± 7 mmHg
Mean BP after 2nd bolus (600 ng/kg) [2]: 140 ± 3 mmHg
Cumulative % drop in mean BP after the 2nd bolus ([2]; boluses 300 then 600 ng/kg): −15 ± 4%
Compound: N=C(N)NCCc1cncn1Cc1ccccc1-c1nnn[nH]1 [E-P]
suppression of the hypertensive effect of NE [1]: 45%
Δ2 = BP changes between second bolus of Norepinephrine and the new baseline BP after injection of compound ([1]; group mean, 100 μg/kg compound): 23.0 mmHg
Δ2 = BP changes between second bolus of Norepinephrine and the new baseline BP after injection of compound ([1]; group mean, 300 μg/kg compound): 12.3 mmHg
BP after second bolus NE (0.12 μg/kg) [1, 6]: 153.5 mmHg
BP after second bolus NE (0.12 μg/kg) ([1]; group mean, after 300 μg/kg compound): 124.0 mmHg
BP after compound (100 μg/kg) [1, 7]: 130.5 mmHg
BP after compound (300 μg/kg) ([1]; group mean): 111.7 mmHg
Δ2 = BP changes between second bolus of Norepinephrine and the new baseline BP after injection of compound [1, 8]: 32.0 mmHg and 14.0 mmHg
Δ2 = BP changes between second bolus of Norepinephrine and the new baseline BP after injection of compound ([1]; individual mice, 300 μg/kg compound): 8.0 mmHg and 13.0 mmHg and 16.0 mmHg
BP after second bolus NE (0.12 μg/kg) [1, 9]: 158.0 mmHg and 149.0 mmHg
BP after second bolus NE (0.12 μg/kg) ([1]; individual mice, after 300 μg/kg compound): 128.0 mmHg and 120.0 mmHg and 124.0 mmHg
BP after compound (100 μg/kg) ([1]; individual mice): 126.0 mmHg and 135.0 mmHg
BP after compound (300 μg/kg) ([1]; individual mice): 120.0 mmHg and 107.0 mmHg and 108.0 mmHg
dose required to suppress NE effect ([1]; mice): 0.3 mg/kg
effect on mean BP [3]: did not significantly affect mean BP

Mean BP after 1st bolus (150 ng/kg) [2]: 148 ± 6 mmHg
Mean BP after 2nd bolus (300 ng/kg) [2]: 136 ± 3 mmHg
Cumulative % drop in mean BP after the 2nd bolus ([2]; boluses 150 then 300 ng/kg): −22 ± 5%
Compound: CCCCc1nc(Cl)c(CO)n1Cc1ccc(-c2ccccc2-c2nn[nH]n2)cc1 [Losartan]
